Data: ChEMBL document CHEMBL3507680, “University of Dundee, Gates Library screen for HepG2 cell viability”

Assay: Human HepG2 cell viability assay in 384 well format
Format: toxicity, cell-based
Design: dose 125 nL, time 70.5 hour; concentration not given beside the values
Settings: HepG2 cells, read-out: Inhibition

## O=C1O[C@@H]2CN(c3ccncc3)C[C@@H]2N1CCCc1ccc(F)cc1
  cytotoxicity at 70.5 h: -6.08%

## CN1CC2(CCN(C(=O)c3cc(-n4cccn4)ccc3Cl)CC2)OC1=O
  cytotoxicity at 70.5 h: 7.23%

## CCOC(=O)c1n[nH]cc1CN1CCOC(Cc2ccccc2)C1 (stereo not given)
  cytotoxicity at 70.5 h: 0.539%

## O=C(c1ccc(Cn2cnnn2)cc1)N1CC[C@H](CO)[C@H](O)C1
  cytotoxicity at 70.5 h: -8.21%

## c1cncc(CNc2ncnc3c2CCN(Cc2ccsc2)CC3)c1
  cytotoxicity at 70.5 h: -5.06%

## CCCc1nc(C)cc(NCCc2nnc(N)s2)n1
  cytotoxicity at 70.5 h: -12.9%

## CCSCC(C)NCc1cc(-c2ccco2)on1 (stereo not given)
  cytotoxicity at 70.5 h: -10.3%

## Cc1nc(O)cc(CCNc2nccc(CCC(F)(F)F)n2)n1
  cytotoxicity at 70.5 h: -8.71%

## Cc1ccccc1CN1CCN(C(=O)CCn2ccccc2=O)CC1
  cytotoxicity at 70.5 h: -12.1%

## O=C1OCCN1Cc1cccc(C(F)(F)F)c1F
  cytotoxicity at 70.5 h: -10.3%

## CCCn1c(C)c(CC(=O)NCC(C)O)c2c1CC(C)(C)CC2=O (stereo not given)
  cytotoxicity at 70.5 h: 2.45%

## Cc1cc(N(C)Cc2ncc[nH]2)nc(-c2cccnc2)n1
  cytotoxicity at 70.5 h: -11.2%

## CC(C)(CN1C[C@H](Nc2ncccn2)[C@@H](C2CC2)C1)N1CCOCC1
  cytotoxicity at 70.5 h: -11.6%

## CCc1ncc(C(=O)N(C)CCc2nc3cc(OC)ccc3[nH]2)cn1
  cytotoxicity at 70.5 h: 11.2%

## Cc1cc(C(=O)NCCc2cn3nc(C)sc3n2)c(C)o1
  cytotoxicity at 70.5 h: -5.61%

## Cc1ccc(C(=O)O)cc1CNC(=O)CN1CC(C)(C)[C@@](C)(O)C1
  cytotoxicity at 70.5 h: -6.75%

## O=C(NCCCOc1cccnc1)c1cn(CCc2ccccc2)nn1
  cytotoxicity at 70.5 h: -7.58%

## OC1(Cn2ccnc2)CCN(C[C@]2(O)CCCN3CCCC[C@@H]32)CC1
  cytotoxicity at 70.5 h: 11.3%

## Cc1ccc(CN2C[C@H]3OC(=O)N(Cc4ccccn4)[C@H]3C2)o1
  cytotoxicity at 70.5 h: 2.3%

## Cc1ccc(C(=O)N2CCC(c3nccn3Cc3ccncc3)CC2)s1
  cytotoxicity at 70.5 h: -8.45%

## CCN1CCC(CC(=O)NCCc2nc(O)cc(O)n2)CC1
  cytotoxicity at 70.5 h: 16.1%

## CCN(Cc1cnn(C)c1)C[C@H]1CC[C@@H](Cc2ccc(C)nc2)O1
  cytotoxicity at 70.5 h: -16.5%

## c1ncc(-c2cn(CCSc3cnn[nH]3)nn2)cn1
  cytotoxicity at 70.5 h: -6.48%

## CCOCc1nc2c(c(N3CCCn4nc(C)cc4C3)n1)CCNCC2
  cytotoxicity at 70.5 h: 23.6%

## CCCc1cc(N2CCC(NCC3(O)CCN(C)CC3)CC2)nc(C)n1
  cytotoxicity at 70.5 h: -6.43%

## CN(Cc1cc2cc(F)ccc2[nH]1)C(=O)C1CC(=O)N(C2CC2)C1 (stereo not given)
  cytotoxicity at 70.5 h: -2.65%

## CCc1nc(N)sc1C(=O)N1CCC(c2cc(O)nc(C)n2)CC1
  cytotoxicity at 70.5 h: 20.6%

## CC(C)CN1CCN(Cc2nc3c(s2)CCCC3)[C@H]2CS(=O)(=O)C[C@H]21
  cytotoxicity at 70.5 h: 10.7%

## N#Cc1cnc(N2Cc3cnn(Cc4ccc(F)cc4)c3C2)nc1N
  cytotoxicity at 70.5 h: -6.63%

## Cc1c(C(C)NC2CSCCSC2)cnn1-c1ccc(F)cc1F (stereo not given)
  cytotoxicity at 70.5 h: -9.32%

## CN1C[C@H]2CC[C@@H]1CN(C(=O)COCc1nc3cc(F)ccc3[nH]1)C2
  cytotoxicity at 70.5 h: 27.3%

## COC(C)(C)CC(C)NCc1nncn1C1CCCCC1 (stereo not given)
  cytotoxicity at 70.5 h: -7.83%

## O=C1OC2(CCNCC2)CN1CC(=O)N1CCC1c1cccs1 (stereo not given)
  cytotoxicity at 70.5 h: -6.81%

## Cc1nc(CC(C)C)cc(C(=O)N2C[C@@H](CN(C)C)[C@@H](CO)C2)n1
  cytotoxicity at 70.5 h: 6.25%

## CCc1nc(C)c(-c2nccn2CC2CCCCO2)[nH]1 (stereo not given)
  cytotoxicity at 70.5 h: -10.5%

## c1cc2c(cc1Cn1cc(C3CCCNC3)nn1)CCCO2 (stereo not given)
  cytotoxicity at 70.5 h: -15.2%

## C[C@@H]1CN(C(=O)c2cc(Cn3cnc4ccccc43)on2)C[C@H](C)O1
  cytotoxicity at 70.5 h: -5.79%

## O=C(NCC1CCN(Cc2cc3ccccc3[nH]2)C1)C1CCCCC1 (stereo not given)
  cytotoxicity at 70.5 h: -19.6%

## COc1ccc(-n2nc(C(C)C)nc2Cn2cncn2)cc1
  cytotoxicity at 70.5 h: -8.35%

## CSCCCN1CCC(c2nnc(Cn3ccnc3)n2C2CC2)CC1
  cytotoxicity at 70.5 h: -0.0518%

## CCCN1CCC(Cc2nc(CN3CCN(C)CC3)no2)CC1
  cytotoxicity at 70.5 h: -5.37%

## CCN(Cc1ccncc1)C(=O)c1cc(C)c(C)c(S(N)(=O)=O)c1
  cytotoxicity at 70.5 h: -2.98%

## Cc1ncsc1CCN(C)C(=O)c1c(O)cccc1O
  cytotoxicity at 70.5 h: 10.9%

## CCc1nn(C)c(Cl)c1CN1CCC(c2cc(O)nc(C)n2)CC1
  cytotoxicity at 70.5 h: -10.5%

## COc1ccc(Cl)cc1-n1cnc(CCNC(C)=O)c1
  cytotoxicity at 70.5 h: -4.49%

## COc1cccc(S(=O)(=O)N2C[C@@H](N(C)C)[C@H](C(C)C)C2)c1
  cytotoxicity at 70.5 h: -0.713%

## CCn1c(CN(C)C)nnc1C1CCN(c2nccc(NC)n2)CC1
  cytotoxicity at 70.5 h: -2.22%

## Cc1cc(NCC2CCS(=O)(=O)C2)n2nc(C)cc2n1 (stereo not given)
  cytotoxicity at 70.5 h: 12.6%

## O=C(Nc1cnn(CC(=O)N2CCCCO2)c1)c1ccccn1
  cytotoxicity at 70.5 h: 2.98%

## O=C(Cn1cccn1)NCC1CCN(Cc2cc3ccccc3[nH]2)C1 (stereo not given)
  cytotoxicity at 70.5 h: -14.4%

## N[C@H]1CN(C(=O)c2ccc(CO)cc2)C[C@@H]1C1CC1
  cytotoxicity at 70.5 h: 6.41%

## CN(CC1CCCCO1)c1ncnc2cc(F)ccc12 (stereo not given)
  cytotoxicity at 70.5 h: -9.25%

## CCc1ncc(C(=O)N(C)C(C)c2ccc3c(c2)OCCO3)cn1 (stereo not given)
  cytotoxicity at 70.5 h: 1.19%

## Cc1ccccc1OCC(O)C(=O)N1CCC2(CC1)CN(C)C(=O)O2 (stereo not given)
  cytotoxicity at 70.5 h: -4.24%

## O=C1CC[C@H]2CN(c3ncc(F)cn3)CC[C@H]2N1CCc1ccccc1
  cytotoxicity at 70.5 h: -6.02%

## Cc1nnc(CCNC(=O)[C@H]2CNC[C@@H](C(=O)N3CCCC3)C2)s1
  cytotoxicity at 70.5 h: -6.7%

## CC1(c2ccccc2)CCC(=O)N(CCN2CCOC2=O)C1 (stereo not given)
  cytotoxicity at 70.5 h: -2.39%

## COCCOCC(=O)N1CCC(c2ccccc2F)C1 (stereo not given)
  cytotoxicity at 70.5 h: -9.1%

## CC(C)(C)SCCNC(=O)[C@@]12CNC[C@@H]1CN(S(C)(=O)=O)C2
  cytotoxicity at 70.5 h: -2.8%

## O=C(O)c1cc(-c2ccoc2)cc(S(=O)(=O)N2CCSCC2)c1
  cytotoxicity at 70.5 h: -4.7%

## Cc1cccc(-n2nc(CC(C)C)nc2[C@H](C)O)c1
  cytotoxicity at 70.5 h: 16.4%

## CN(CCNC(=O)c1cnc(-c2ccncc2)nc1)S(C)(=O)=O
  cytotoxicity at 70.5 h: -7.17%

## O=C(CCN1CCCCC1)N1CCC(Cc2ccc(CO)cc2)C1 (stereo not given)
  cytotoxicity at 70.5 h: -6.38%

## CN(Cc1ccon1)c1nc(-c2ccccn2)nc2c1CCNCC2
  cytotoxicity at 70.5 h: 12.3%

## O=C(CN1C(=O)CCNC1=O)N1CCOC(c2ccc(F)cc2)C1 (stereo not given)
  cytotoxicity at 70.5 h: -2.25%

## COc1cccc(-c2ncc(CN3CC[C@H]4CC[C@@H](C3)N4)s2)c1
  cytotoxicity at 70.5 h: 9.35%

## CCN(Cc1ccc(-c2ccccn2)cc1)C1CCS(=O)(=O)C1 (stereo not given)
  cytotoxicity at 70.5 h: -1.78%

## O=C(NCc1csc(-c2cnccn2)n1)c1cnn2c1CCCC2
  cytotoxicity at 70.5 h: -5.37%

## COCCN1CCN(C(=O)c2ccc(C)cc2F)[C@H]2CS(=O)(=O)C[C@H]21
  cytotoxicity at 70.5 h: -8.53%

## CC(C)N(CCO)C(=O)C1CCC(=O)N(CCc2cccc(F)c2)C1 (stereo not given)
  cytotoxicity at 70.5 h: -10%

## Cc1ccc(CN2CCN(Cc3cc(C)n[nH]3)CC2CCO)cc1 (stereo not given)
  cytotoxicity at 70.5 h: 12.1%

## CCn1nc(CC(C)C)cc1C(=O)N1CCCC(C#N)C1 (stereo not given)
  cytotoxicity at 70.5 h: 0.732%

## CC(=O)N1C[C@H](NS(=O)(=O)Cc2cccc(Cl)c2)[C@@H](C(C)C)C1
  cytotoxicity at 70.5 h: -6.96%

## CCOc1ccnc(NCc2nc(C)cc(=O)[nH]2)n1
  cytotoxicity at 70.5 h: -6.71%

## Cc1cc(C)c(Cn2cncn2)cc1CN1CC[C@H]2CC[C@@H](C1)N2
  cytotoxicity at 70.5 h: 2.8%

## CCC[C@H]1CN(Cc2nccn2C)C[C@@H]1NC(=O)C1(COC)CCC1
  cytotoxicity at 70.5 h: -4.15%

## O=C(NCc1cccnc1N1CCCC(O)C1)c1ccsc1 (stereo not given)
  cytotoxicity at 70.5 h: -20.7%

## Cc1cc2nc(C(C)C)cc(N3CCC(N(C)C)C3)n2n1 (stereo not given)
  cytotoxicity at 70.5 h: 2.59%

## Cc1cc(C2CCC2)nc(N2CCC3(CC2)OCCCC3O)n1 (stereo not given)
  cytotoxicity at 70.5 h: -8.75%

## Cc1[nH]nc(CCC(=O)N2C[C@H]3CC[C@@H]2CN(C(=O)N(C)C)C3)c1C
  cytotoxicity at 70.5 h: -8.2%

## O=C(O)CN(Cc1ccsc1)CC1CCCO1 (stereo not given)
  cytotoxicity at 70.5 h: -2.27%

## CC1(C)CC(CN2CCC3(CCC(=O)N(C4CCC4)C3)CC2)CCO1 (stereo not given)
  cytotoxicity at 70.5 h: -9.04%

## O=C(CCCN1CCCCC1)NC(C(=O)O)c1cccc(F)c1 (stereo not given)
  cytotoxicity at 70.5 h: -6.49%

## CCc1nc2c(NCC3COc4c(cccc4OC)C3)ncnc2o1 (stereo not given)
  cytotoxicity at 70.5 h: -4.9%

## COCc1noc(CN2CC(Cc3ccccc3)CC2=O)n1 (stereo not given)
  cytotoxicity at 70.5 h: -20.6%

## CCc1ccc(CN(C)Cc2cnc(S(=O)(=O)CC)n2CCOC)cc1
  cytotoxicity at 70.5 h: -7.48%

## Cc1ccc(C(=O)N2CCC3(CCC(=O)N(C(C)C)C3)CC2)c(O)c1
  cytotoxicity at 70.5 h: 29.9%

## CC(O)c1cn(CC2CCN(C(=O)c3cscn3)CC2)nn1 (stereo not given)
  cytotoxicity at 70.5 h: -3.74%

## CCSCCn1cc(-c2ncc[nH]2)nn1
  cytotoxicity at 70.5 h: -17.4%

## CCOC(=O)c1coc(N2CCN(Cc3ccc(C)cc3)C(=O)C2)n1
  cytotoxicity at 70.5 h: 0.779%

## COCCN(Cc1cnn(C)c1)c1nc2c(s1)c(C)nn2C
  cytotoxicity at 70.5 h: 3.84%

## COCCn1cnnc1Cn1ccnc1-c1ccoc1
  cytotoxicity at 70.5 h: 27.2%

## CSCCC(=O)N(C/C=C/c1ccccc1)CCO
  cytotoxicity at 70.5 h: -5.02%

## Cc1nn(CCC(=O)NC(C(=O)O)c2c(C)n[nH]c2C)c(C)c1C (stereo not given)
  cytotoxicity at 70.5 h: -3.08%

## Cc1cc(N2CCN(C(=O)CCc3scnc3C)CC2)cc(C)n1
  cytotoxicity at 70.5 h: 21.2%

## COc1ccc2c(c1)Cc1c-2nc(N)c(C#N)c1C1CCOC1 (stereo not given)
  cytotoxicity at 70.5 h: 2.5%

## CN(C)C(=O)N1C[C@@H]2CC[C@H](C1)N(C(=O)c1cccc(N(C)C)c1)C2
  cytotoxicity at 70.5 h: -4.96%

## NC(=O)CN1CC2(CCC1=O)CCN(Cc1ccc(F)cc1Cl)CC2
  cytotoxicity at 70.5 h: -1.9%

## O=C(NCC(F)F)c1ccc(S(=O)(=O)N2CCCC(O)C2)cc1 (stereo not given)
  cytotoxicity at 70.5 h: 18.2%

## COCCc1noc(Cn2c(=O)[nH]c3ccccc32)n1
  cytotoxicity at 70.5 h: -10.2%

## CCN1CC2(CCN(CC3CCCO3)CC2)OC1=O (stereo not given)
  cytotoxicity at 70.5 h: -2.54%

## CNc1ncc(C(=O)N2CC[C@@](O)(C3CCOCC3)[C@H](C)C2)cn1
  cytotoxicity at 70.5 h: 5.71%

## Cn1cc(-c2ccnc(NCC3CCN(Cc4ccccc4)C3)n2)cn1 (stereo not given)
  cytotoxicity at 70.5 h: 11.9%

## COc1ccnc(CNc2cc(C3CC3)ncn2)c1
  cytotoxicity at 70.5 h: -11.7%

## COCc1noc(CN2C(=O)OC[C@@H]2C(C)C)n1
  cytotoxicity at 70.5 h: 19.3%

## O=C(N1CCC(OCc2ccccn2)CC1)C1(c2ccc(F)cc2)CC1
  cytotoxicity at 70.5 h: -0.41%

## Cc1cc2nc(C(C)C)cc(N3CCN(c4ccc(O)cc4)CC3)n2n1
  cytotoxicity at 70.5 h: -1.87%

## COc1cc2c(cc1OC)CN(Cc1ncccc1C(=O)O)CC2
  cytotoxicity at 70.5 h: -13.5%

## C[C@@H]1CN(Cc2ccncc2)C[C@]1(C)O
  cytotoxicity at 70.5 h: -18%

## Cc1ccc(-c2ccnc(N3CCC4(CCO4)CC3)n2)c(C)n1
  cytotoxicity at 70.5 h: -6.98%
